Laboratory results: PubChem BioAssay (NCI)
Several values for one entry are separate records, joined by “and”; a condition that tells them apart may be missing. Equal values may be shown once.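 Growth conditions: 96-well plates. Treatment: test compound, 48 hours, 5 concentrations. Analysis: linear interpolation between bracketing concentrations; unreached endpoints set to highest concentration. Abbreviation: GI50, concentration required for 50% inhibition of growth. TGI marks complete inhibition of growth.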

What was measured:
Assay in all cases: growth of human tumour cells (NCI), 48 h
HCT-15 colon = system: HCT-15 colon
NCI-H226 lung = system: NCI-H226 lung
CAKI-1 renal = system: CAKI-1 renal
PC-3 prostate = system: PC-3 prostate
A549 NSCLC = system: A549 NSCLC
SK-OV-3 ovarian = system: SK-OV-3 ovarian
MDA-MB-231 breast = system: MDA-MB-231 breast
HOP-62 NSCLC = system: HOP-62 NSCLC
M14 melanoma = system: M14 melanoma
EKVX NSCLC = system: EKVX NSCLC
OVCAR-8 ovarian = system: OVCAR-8 ovarian

SMILES	TGI (HCT-15 colon)	TGI (NCI-H226 lung)	TGI (CAKI-1 renal)	TGI (PC-3 prostate)	TGI (A549 NSCLC) [µM]	TGI (SK-OV-3 ovarian)	TGI (MDA-MB-231 breast)	TGI (HOP-62 NSCLC)	TGI (M14 melanoma) [µM]	TGI (EKVX NSCLC)	TGI (OVCAR-8 ovarian)	GI50 (HCT-15 colon) [µM]	GI50 (NCI-H226 lung) [µM]	GI50 (MDA-MB-231 breast) [µM]	GI50 (EKVX NSCLC) [µM]
O=C1COc2cc(N3CCN(c4cccc(C(F)(F)F)c4)CC3)ccc2N1	> 100 µM	> 100 µM	> 100 µM	> 100 µM	> 100	> 100 µM	> 100 µM	> 100 µM	> 100	> 100 µM	> 100 µM				
c1nc(NCCc2cnc[nH]2)c2[nH]cnc2n1	> 100 µM	> 100 µM	> 100 µM	> 100 µM	> 100	> 100 µM	> 100 µM	> 100 µM	> 100	> 100 µM	> 100 µM				
COc1cccc(N=N/C(=N/NC(=O)c2ccc(C)cc2)c2ccc(N(CCC#N)CCC#N)cc2OC)c1	> 100 µM	> 100 µM	> 100 µM	> 100 µM	> 100	> 100 µM	> 100 µM	> 100 µM	> 100	37.4 µM	> 100 µM				
Cc1c(C(=O)c2ccc(N)c3ccccc23)c2ccccc2n1CCN1CCOCC1	> 95.7 µM	> 100 µM	> 100 µM	> 100 µM	99.1	> 100 µM	> 100 µM	> 90.1 µM	63.7	> 92.2 µM	> 94.5 µM				
COc1cc(/C=C2\CC/C(=C\c3cc(OC)c(O)c(OC)c3)C2=O)cc(OC)c1O	18.7 µM	> 33.3 µM	7.32 µM	19.7 µM	> 62.1	> 100 µM	21.4 µM	> 100 µM	> 23.6	16.5 µM	> 26.1 µM				
Cn1cnc(N)c(N=O)c1=O	> 10 µM	> 10 µM	> 10 µM	> 10 µM	> 10	> 10 µM	> 10 µM	> 10 µM	> 10	> 10 µM	> 10 µM				
O=c1[nH]c(=O)n(C2CC(O)C(CO)O2)cc1Oc1ccccc1 (stereo not given)	> 100 µM	> 100 µM	> 100 µM	> 100 µM	> 100	> 100 µM	> 100 µM	> 100 µM	> 100	> 100 µM	> 100 µM				
C1=NCCNCCNCCN=Cc2ccc(cc2)OCc2cccc(n2)COc2ccc1cc2	> 100 µM	> 100 µM	> 100 µM	> 100 µM	> 100	> 100 µM	> 100 µM	> 100 µM	> 100	> 100 µM	> 100 µM				
Cc1ccc(S(=O)(=O)NC(CCC(=O)NNc2ccccc2)C(=O)NNc2ccccc2)cc1 (stereo not given)	> 100 µM	> 100 µM	> 100 µM	> 100 µM	48.8	> 100 µM	> 100 µM	> 100 µM	78.8	> 100 µM	> 100 µM				
CC(C)(C)OC(=O)N/C(C=O)=C\C1CCCCC1	41.8 µM	55.1 µM	46.9 µM	47.4 µM	> 100	> 100 µM	44.2 µM	58.9 µM	30.4	35.4 µM	31.7 µM				
CCN1C/C(=C\c2ccc(Cl)cc2)c2nc(N)c(C#N)c(-c3ccc(Cl)cc3)c2C1	> 100 µM	> 100 µM	> 100 µM	> 100 µM	> 100	> 100 µM	> 100 µM	> 100 µM	> 100	> 100 µM	> 100 µM				
CCCCc1ccc(Nc2ncc3ncn(COCCO)c3n2)cc1	> 100 µM	> 100 µM	> 100 µM	> 100 µM	> 100	> 100 µM	57.4 µM	> 100 µM	53	88.7 µM	> 100 µM				
N#CC1(C#N)C(C#N)(C#N)C1(C#N)C(N)=O	> 100 µM	> 100 µM	> 100 µM	> 100 µM	> 100	> 100 µM	> 100 µM	> 100 µM	> 100	> 100 µM	> 100 µM				
CCC1(O)CC(OC2CC(N(C)C)C(OC3CC(O)C(OC4OC(C)C(=O)C=C4N)C(C)O3)C(C)O2)c2c(cc3c(c2O)C(=O)c2c(O)cccc2C3=O)C1C(=O)OC (stereo not given)	1.66 µM and 11.8 µM	0.347 µM and 0.0894 µM	0.308 µM and 0.0365 µM	0.333 µM and 1.1 µM	1.63	2.51 µM and 4.32 µM	2.03 µM and 2.09 µM	1.14 µM and 0.344 µM	0.656	0.539 µM and 1.43 µM	1.59 µM and 1.32 µM	0.471	0.0161	0.0369	0.0327
O=C1CCCNn2c(nc3ncccc3c2=O)N1	> 100 µM	> 100 µM	> 100 µM	> 100 µM	> 100	> 100 µM	> 100 µM	> 100 µM	> 100	> 100 µM	> 100 µM				
COC(=O)C1CC2(C)C=CC1N(C(=O)OCc1ccccc1)C2 (stereo not given)	> 100 µM	> 100 µM	> 100 µM	> 100 µM	> 100	> 100 µM	> 100 µM	> 100 µM	> 100	> 100 µM	> 100 µM				
